Target: T1, PU.1 (Mus musculus, UniProt P17433)
T1 construct: endogenous in cells; host or cells: BV2 PU.1-Luciferase (mouse microglial BV2 with a 5xLBB-luciferase reporter integrated at ROSA26)
Test: Luciferase assay (luminescence) in BV2 PU.1-Luciferase reporter cells
Assay type: cell-based
Details: luminescence reduction in BV2 PU.1-Luciferase cells, concentration-response, Hill's equation

IC50: 2 nM
Compound: O=S(=O)(NCc1ccncc1)c1ccc(C2CCCCC2)cc1 [Compound A11]
